{"source": "patent US11523998B2", "about": "“Anti-inflammatory formulations and uses thereof including a combination of palmitoylethanolamide and plant-based polyphenols” (The Texas A&M University System, priority 2018, dated 2022)", "key": {"[1]": {"test_system": "interleukin-1 beta (II-1β)", "assay": "Il-1β mRNA expression (RT-qPCR) in LPS-activated RAW 264.7 macrophages", "assay_type": "cell-based, murine", "conditions": "for reduction of IL-1β mRNA expression: 1.0 mg/L alone; for reduction of IL-1β mRNA expression, alone at same molarity: around 3.4 μM (1.0 mg/L quercetin, 0.974 mg/L luteolin)", "procedure": "RAW 264.7 murine macrophage cell line was purchased from American Type Culture Collection (ATCC-TIB71). Cells were cultured in high glucose Dulbecco's Modified Eagle Medium (DMEM) supplemented with stable glutamine (0.0584%) and sodium pyruvate (0.011%), 10% (v/v) heat-inactivated fetal bovine serum, and 1% (v/v) penicillin/streptomycin mix. Cells were maintained in an incubator at 37° C. with 5% CO2, and the medium was changed every two days. All assays were conducted in cells between the 3rd and the 15th passage. All treatments with PEA and other polyphenols were solubilized in dimethyl sulfoxide (DMSO) and further diluted in complete culture media immediately before use. LPS (10 ng mL-1) was used to induce inflammation in RAW 264.7 cultures.\nMurine RAW 264.7 macrophage cells (1×10^5 cells per well) were seeded in 12-well plates and incubated for 24 hours. Cells were pre-treated with Palmitoylethanolamide (PEA) and other compounds of interest for 1 hour and then lipopolysaccharide (LPS), a major activating agent of macrophages, was added for a final concentration of 10 ng·mL-1. Cells were then incubated for 8 hours. Negative control (culture media only) and positive (LPS) controls, as well as a Vehicle (DMSO at a maximal concentration of 0.2%)+LPS were also performed. Total RNA was extracted and purified using an RNeasy mini kit (QIAGEN, Venlo, Netherlands) according to the manufacturer's protocol. mRNA quality and quantification were assessed with NanoDrop® ND-1000 (NanoDrop Technologies, Wilmington, Del., USA). cDNA synthesis was performed with the iScript Reverse Transcription Supermix (Bio-Rad Laboratories, Hercules, Calif., USA) according to the manufacturer's protocol. RT-qPCR reactions were performed using iTaq Universal Probes Supermix (Bio-Rad Laboratories, Hercules, Calif., USA). mRNA expression cyclooxygenase-2 (Cox-2) and interleukin-1 beta (II-1β) were analyzed using beta-actin (Actb) as a reference gene. The levels of transcripts were calculated relative to the control group by the 2-ΔΔCt method.\n(§1) All data were analyzed by one-way analysis of variance (ANOVA) with Dunnet's or Sidak's posttest using GraphPad Prism 6.0 (GraphPad Software, La Jolla, Calif., USA)."}, "[2]": {"test_system": "cyclooxygenase-2 (Cox-2)", "assay": "Cox-2 mRNA expression (RT-qPCR) in LPS-activated RAW 264.7 macrophages", "assay_type": "cell-based, murine", "conditions": "LPS 10 ng/mL; for downregulation of Cox-2 mRNA expression, compound alone: 9 h", "procedure": "Cells were maintained in an incubator at 37° C. with 5% CO2, and the medium was changed every two days. All assays were conducted in cells between the 3rd and the 15th passage. All treatments with PEA and other polyphenols were solubilized in dimethyl sulfoxide (DMSO) and further diluted in complete culture media immediately before use.\nCells were pre-treated with Palmitoylethanolamide (PEA) and other compounds of interest for 1 hour and then lipopolysaccharide (LPS), a major activating agent of macrophages, was added for a final concentration of 10 ng·mL-1. Cells were then incubated for 8 hours. Negative control (culture media only) and positive (LPS) controls, as well as a Vehicle (DMSO at a maximal concentration of 0.2%)+LPS were also performed. Total RNA was extracted and purified using an RNeasy mini kit (QIAGEN, Venlo, Netherlands) according to the manufacturer's protocol. mRNA quality and quantification were assessed with NanoDrop® ND-1000 (NanoDrop Technologies, Wilmington, Del., USA). cDNA synthesis was performed with the iScript Reverse Transcription Supermix (Bio-Rad Laboratories, Hercules, Calif., USA) according to the manufacturer's protocol. RT-qPCR reactions were performed using iTaq Universal Probes Supermix (Bio-Rad Laboratories, Hercules, Calif., USA). mRNA expression cyclooxygenase-2 (Cox-2) and interleukin-1 beta (II-1β) were analyzed using beta-actin (Actb) as a reference gene. The levels of transcripts were calculated relative to the control group by the 2-ΔΔCt method.\nas §1"}}}
{"smiles": "COc1cc(CNC(=O)CCCC/C=C/C(C)C)ccc1O", "note": "[capsaicin]", "values": [{"measurement": "expression of IL-1β, compound alone (screening)", "setting": "[1]; alone, LPS 10 ng/mL, 9 h", "result": "significant reduction"}, {"measurement": "expression of IL-1β, in combination with PEA (screening)", "setting": "[1]; in combination with PEA, LPS 10 ng/mL, 9 h", "result": "significant reduction"}]}
{"smiles": "O=c1c(O)c(-c2ccc(O)c(O)c2)oc2cc(O)cc(O)c12", "note": "[quercetin]", "values": [{"measurement": "reduction of IL-1β mRNA expression", "setting": "[1]; LPS 10 ng/mL", "result": "around 45%"}, {"measurement": "reduction of IL-1β mRNA expression, alone at same molarity", "setting": "[1]; alone, 9 h", "result": 78, "unit": "%"}, {"measurement": "lowest effective concentration of compound alone (II-1β expression)", "setting": "[1]; LPS 10 ng/mL, 9 h", "result": 1.0, "unit": "mg/L"}]}
{"smiles": "CCCCCCCCCCCCCCCC(=O)NCCO", "note": "[PEA, N-(2-Hydroxyethyl)hexadecanamide]", "values": [{"measurement": "expression of Cox-2", "setting": "[2]; PEA 2.0 mg/L", "result": "significantly decrease"}, {"measurement": "reduction of II-1β expression", "setting": "[1]; 0.5 mg/L alone, LPS 10 ng/mL", "result": 28, "unit": "%"}, {"measurement": "expression of the inflammatory cytokine II-1β", "setting": "[1]; PEA 2.0 mg/L, after 1.0-10 ng/mL LPS", "result": "significantly decrease"}, {"measurement": "lowest effective concentration of compound alone (II-1β expression)", "setting": "[1]; LPS 10 ng/mL, 9 h", "result": 0.5, "unit": "mg/L"}]}
{"smiles": "COc1cc(/C=C/C(=O)CC(=O)/C=C/c2ccc(O)c(OC)c2)ccc1O", "note": "[curcumin]", "values": [{"measurement": "reduction of IL-1β mRNA expression", "setting": "[1]; LPS 10 ng/mL", "result": "~57", "unit": "%"}, {"measurement": "lowest effective concentration of compound alone (II-1β expression)", "setting": "[1]; LPS 10 ng/mL, 9 h", "result": 1.0, "unit": "mg/L"}]}
{"smiles": "CC(C)Cc1ccc(C(C)C(=O)O)cc1", "note": "(centres unmarked) [ibuprofen]", "values": [{"measurement": "inflammatory state of the cells (II-1β and Cox-2 expression, screening)", "setting": "[1]; tested concentration, LPS 10 ng/mL, 9 h", "result": "did not improve the inflammatory state of the cells"}]}
{"smiles": "Oc1ccc(C=Cc2cc(O)cc(O)c2)cc1", "note": "[resveratrol]", "values": [{"measurement": "downregulation of Cox-2 mRNA expression, compound alone", "setting": "[2]", "result": "did not reduce"}, {"measurement": "downregulation of Cox-2 mRNA expression, compound alone", "setting": "[2]; listed as Resveratrol", "result": "no downregulation"}, {"measurement": "downregulation of II-1β mRNA expression, compound alone", "setting": "[1]; alone, LPS 10 ng/mL, 9 h", "result": "did not reduce"}, {"measurement": "downregulation of II-1β mRNA expression, compound alone", "setting": "[1]; alone, LPS 10 ng/mL, 9 h, listed as Resveratrol", "result": "no downregulation"}]}
{"smiles": "O=c1cc(-c2ccc(O)c(O)c2)oc2cc(O)cc(O)c12", "note": "[luteolin]", "values": [{"measurement": "reduction of IL-1β mRNA expression, alone at same molarity", "setting": "[1]; alone, 9 h", "result": 50, "unit": "%"}]}
